Results reported in patent US11059808B2, “Substituted phenylpyrrolecarboxamides with therapeutic activity in HIV” (New York Blood Center, Inc., priority 2014, dated 2021).

Columns and labels:
Format in all cases: cell-based
[1] = Cytotoxicity in TZM-bl cells (XTT); details: human, XTT, 3 days
Procedure: (§1) The cytotoxicity of test compounds in TZM-bl cells was also measured by the XTT method described previously^7. […] The soluble intracellular formazan was quantitated colorimetrically at 450 nm 4 h later. The percent of cytotoxicity and the CC50 values were calculated as above. (See Table 4)

[2] = system: HIV-1 pseudovirus pseudotyped with HXB2 Env; experiment: microbe, parasite or virus in culture; details: single cycle assay, TZM-bl cells infected with HIV-1 pseudovirus pseudotyped with HXB2 Env;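 also: endpoint is IC50 for inhibition of pseudovirus infection of TZM-bl cells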
TZM-bl cells = experiment: Cytotoxicity in TZM-bl cells (XTT); details: XTT, 3 days
Procedure: as §1

[3] = Human immunodeficiency virus 1, HXB2, TZM-bl

SMILES	CC50 at 3 days [1] [µM]	further results
Cc1nc(C(NC(=O)c2ccc(-c3ccc(Cl)c(F)c3)[nH]2)C2CCCCN2)sc1CO (single isomer, unassigned) [Compound 20]	15.2 ± 0.2	
Cc1ccc(-c2ccc(C(=O)NC(c3nc(C)c(CO)s3)C3CCCCN3)[nH]2)cc1F (single isomer, unassigned) [Compound 22]	≥ 36	
Cc1ccc(-c2ccc(C(=O)NC(c3nc(C)c(CCO)s3)C3CCCCN3)[nH]2)cc1F (single isomer, unassigned) [Compound 24]	28.8 ± 1	
Cc1nc(C(NC(=O)c2ccc(-c3ccc(Cl)c(F)c3)[nH]2)C2CCCCN2)sc1CCO (single isomer, unassigned) [Compound 26]	16.1 ± 0.2	
Cc1nc(C(NC(=O)c2ccc(-c3ccc(Cl)cc3)[nH]2)C2CCCCN2)sc1CCO (single isomer, unassigned) [Compound 28]	17.3 ± 0.1	
Cc1ccc(-c2ccc(C(=O)NC(c3nc(C)c(CCCO)s3)C3CCCCN3)[nH]2)cc1F (single isomer, unassigned) [Compound 30]	17 ± 0.7	
Cc1nc(C(NC(=O)c2ccc(-c3ccc(Cl)c(F)c3)[nH]2)C2CCCCN2)sc1CCCO (single isomer, unassigned) [Compound 31]	8.2 ± 0.3	
Cc1nc(C(NC(=O)c2ccc(-c3ccc(Cl)cc3)[nH]2)C2CCCCN2)[nH]c1CO (single isomer, unassigned) [Compound 33]	28 ± 0.5	
Cc1nc(C(NC(=O)c2ccc(-c3ccc(Cl)c(F)c3)[nH]2)C2CCCCN2)[nH]c1CO (single isomer, unassigned) [Compound 35]	25 ± 0.5	
Cc1ccc(-c2ccc(C(=O)NC(c3nc(C)c(CO)[nH]3)C3CCCCN3)[nH]2)cc1F (single isomer, unassigned) [Compound 37]	30 ± 0.3	
Cc1nc(C(CN)NC(=O)c2ccc(-c3ccc(Cl)cc3)[nH]2)sc1CO (single isomer, unassigned) [Compound 39]	≥ 34	
Cc1ccc(-c2ccc(C(=O)NC(CN)c3nc(C)c(CO)s3)[nH]2)cc1F (single isomer, unassigned) [Compound 43]	≥ 34	
Cc1nc(C(CNC(=N)N)NC(=O)c2ccc(-c3ccc(Cl)cc3)[nH]2)sc1CO (single isomer, unassigned) [Compound 45]	> 37	
Cc1nc(C(CNC(=N)N)NC(=O)c2ccc(-c3ccc(Cl)c(F)c3)[nH]2)sc1CO (single isomer, unassigned) [Compound 48]	> 36	
Cc1ccc(-c2ccc(C(=O)NC(CNC(=N)N)c3nc(C)c(CO)s3)[nH]2)cc1F (single isomer, unassigned) [Compound 49]	> 37	
Cc1nc(C(CN)NC(=O)c2ccc(-c3ccc(Cl)c(F)c3)[nH]2)sc1CO (single isomer, unassigned) [Compound 51]	~28	
CNCC(NC(=O)c1ccc(-c2ccc(Cl)c(F)c2)[nH]1)c1nc(C)c(CO)s1 (single isomer, unassigned) [Compound 56]	~21	IC50 [2]: 1.6 ± 0.6 µM
CNCC(NC(=O)c1ccc(-c2ccc(Cl)cc2)[nH]1)c1nc(C)c(CO)s1 (single isomer, unassigned) [Compound 58]	~37	
Cc1nc(C(CN(C)C)NC(=O)c2ccc(-c3ccc(Cl)cc3)[nH]2)sc1CO (single isomer, unassigned) [Compound 62]	> 40	IC50 [2, 3]: 22 ± 3.8 µM
Cc1ccc(-c2ccc(C(=O)NC(CN(C)C)c3nc(C)c(CO)s3)[nH]2)cc1F (single isomer, unassigned) [Compound 64]	~40	IC50 [2]: ~40 µM

SMILES	CC50 at 3 days [1] [µM]	further results
CC(=O)NCC(NC(=O)c1ccc(-c2ccc(Cl)c(F)c2)[nH]1)c1nc(C)c(COC(C)=O)s1 (single isomer, unassigned) [Compound 66]	> 40	
Cc1nc(C(CN(C)C)NC(=O)c2ccc(-c3ccc(Cl)c(F)c3)[nH]2)sc1CO (single isomer, unassigned) [Compound 67]	~29	
Cc1ccc(-c2ccc(C(=O)NC(CCN(C)C)c3nc(C)c(CO)s3)[nH]2)cc1F (single isomer, unassigned) [Compound 72]	36.4 ± 1	
Cc1nc(C(CCN(C)C)NC(=O)c2ccc(-c3ccc(Cl)c(F)c3)[nH]2)sc1CO (single isomer, unassigned) [Compound 74]	22 ± 1	IC50 [2]: 4.6 ± 0.2 µM
Cc1nc(C(CCN(C)C)NC(=O)c2ccc(-c3ccc(Cl)cc3)[nH]2)sc1CO (single isomer, unassigned) [Compound 76]	21.7 ± 1	
CNCCC(NC(=O)c1ccc(-c2ccc(C)c(F)c2)[nH]1)c1nc(C)c(CO)s1 (single isomer, unassigned) [Compound 78]	36.4 ± 2.6	IC50 [2]: 10.4 ± 0.2 µM
CNCCC(NC(=O)c1ccc(-c2ccc(Cl)c(F)c2)[nH]1)c1nc(C)c(CO)s1 (single isomer, unassigned) [Compound 80]	22.3 ± 0.6	IC50 [2]: 9.1 ± 1.1 µM
CNCCC(NC(=O)c1ccc(-c2ccc(Cl)cc2)[nH]1)c1nc(C)c(CO)s1 (single isomer, unassigned) [Compound 82]	23 ± 1.2	IC50 [2]: 18.6 ± 1.5 µM
Cc1ccc(-c2ccc(C(=O)NC(CCN)c3nc(C)c(CO)s3)[nH]2)cc1F (single isomer, unassigned) [Compound 84]	47 ± 0.6	IC50 [2]: 18.2 ± 2.6 µM
Cc1nc(C(CCN)NC(=O)c2ccc(-c3ccc(Cl)c(F)c3)[nH]2)sc1CO (single isomer, unassigned) [Compound 86]	22.9 ± 0.6	
Cc1nc(C(CCN)NC(=O)c2ccc(-c3ccc(Cl)cc3)[nH]2)sc1CO (single isomer, unassigned) [Compound 88]	41 ± 1.1	IC50 [2]: 18.7 ± 0.7 µM
Cc1nc(C(CN)NC(=O)c2cnc(-c3ccc(Cl)cc3)[nH]2)sc1CO (single isomer, unassigned) [Compound 93]	> 51	
Cc1nc(C(CN)NC(=O)c2ncc(-c3ccc(Cl)cc3)[nH]2)sc1CO (single isomer, unassigned) [Compound 95]	> 51	
Cc1cc(C(=O)NC(CN)c2nc(C)c(CO)s2)[nH]c1-c1ccc(Cl)cc1 (single isomer, unassigned) [Compound 97]	5.2 ± 0.3	
NCC(NC(=O)c1ccc(-c2ccc(Cl)c(F)c2)[nH]1)c1ncc(CO)s1 (single isomer, unassigned) [Compound 101]	30.8 ± 1.9	IC50 [2]: 0.57 ± 0.01 µM
NCC(NC(=O)c1ccc(-c2ccc(Cl)cc2)[nH]1)c1ncc(CO)s1 (single isomer, unassigned) [Compound 104]	38 ± 1.5	IC50 [2]: 1.3 ± 0.1 µM
NCC(NC(=O)c1ccc(-c2cc(F)c(Cl)c(F)c2)[nH]1)c1ncc(CO)s1 (single isomer, unassigned) [Compound 119]	18 ± 0.5	
CC(C)(N)C(NC(=O)c1ccc(-c2ccc(Cl)c(F)c2)[nH]1)c1ncc(CO)s1 (single isomer, unassigned) [Compound 124]		IC50 [2]: 0.46 ± 0.01 µM; CC50 (TZM-bl cells): 16.3 ± 0.6 µM
Cc1ccc(-c2ccc(C(=O)NC(c3ncc(CO)s3)C(C)(C)N)[nH]2)cc1F (single isomer, unassigned) [Compound 126]		IC50 [2]: 0.54 ± 0.01 µM; CC50 (TZM-bl cells): 18.1 ± 0.7 µM
CNCC(NC(=O)c1ccc(-c2cc(F)c(Cl)c(F)c2)[nH]1)c1ncc(CO)s1 (single isomer, unassigned) [Compound 127]		IC50 [2, 3]: 0.42 ± 0.2 µM; CC50 (TZM-bl cells): 13.9 ± 0.7 µM

SMILES	CC50 at 3 days [1] [µM]	further results
CNCC(NC(=O)c1ccc(-c2cc(F)c(Cl)c(F)c2)[nH]1)c1ncc(CO)s1 (single isomer, unassigned) [Compound 128]		IC50 [2]: 0.36 ± 0.04 µM; CC50 (TZM-bl cells): 10.4 ± 0.8 µM
COc1ccc(-c2ccc(C(=O)NC(CN)c3ncc(CO)s3)[nH]2)cc1OC (single isomer, unassigned) [Compound 130]		IC50 [2]: > 74.5 µM; CC50 (TZM-bl cells): > 74.5 µM
O=C(NC(c1ccccc1)c1ccc[nH]1)c1ccc(-c2ccc(Cl)cc2)[nH]1 (centres unmarked) [Compound 1]	> 53	
Nc1nc(CNC(=O)c2ccc(-c3ccc(Cl)cc3)[nH]2)n[nH]1 [Compound 2]	> 63	
N=C(N)Nc1ccc(CC(NC(=O)c2ccc(-c3ccc(Cl)cc3)[nH]2)C(=O)N2CCOCC2)cc1 (centres unmarked) [Compound 3]	> 36	
N=C(N)NCCCC(NC(=O)c1ccc(-c2ccc(Cl)cc2)[nH]1)C(=O)NCCO (centres unmarked) [Compound 4]	> 44	
N=C(N)NCCCC(NC(=O)c1ccc(-c2ccccc2)[nH]1)C(=O)NCCO (centres unmarked) [Compound 5]	> 47	
CS(=O)(=O)NCCNC(=O)C(CCCNC(=N)N)NC(=O)c1ccc(-c2ccc(Cl)cc2)[nH]1 (centres unmarked) [Compound 6]	> 37	
CS(=O)(=O)NCCNC(=O)C(CCCNC(=N)N)NC(=O)c1ccc(-c2ccccc2)[nH]1 (centres unmarked) [Compound 7]	> 43	
CN1CCN(NC(=O)C(CCCNC(=N)N)NC(=O)c2ccc(-c3ccc(Cl)cc3)[nH]2)CC1 (centres unmarked) [Compound 8]	> 42	
N=C(N)NCCCC(NC(=O)c1ccc(-c2ccc(Cl)cc2)[nH]1)C(=O)NN1CCOCC1 (centres unmarked) [Compound 9]	> 40	
N=C(N)NCCCC(NC(=O)c1ccc(-c2ccccc2)[nH]1)C(=O)NN1CCOCC1 (centres unmarked) [Compound 10]	> 43	
Cc1n[nH]c(C)c1CNC(=O)c1ccc(-c2ccc(Cl)cc2)[nH]1 [Compound 11]	~60	
Cc1nccn1Cc1ccc(CNC(=O)c2ccc(-c3ccc(Cl)cc3)[nH]2)o1 [Compound 12]	22 ± 0.4	
CCN(CC)Cc1ccc(OC)c(CNC(=O)c2ccc(-c3ccc(Cl)cc3)[nH]2)c1 [Compound 13]	14.2 ± 1	
NS(=O)(=O)c1ccc(CCNC(=O)c2ccc(-c3ccc(Cl)cc3)[nH]2)cc1 [Compound 14]	> 50	
Cc1nc(C(NC(=O)c2ccc(-c3ccc(Cl)cc3)[nH]2)C2CCCCN2)sc1CCCO (centres unmarked) [Compound 32]	13.7 ± 1	
NCCNC(=O)c1ccc(-c2ccc(Cl)c(F)c2)[nH]1 [Compound 71]	19.4 ± 0.9	
